In US20250034216A1, “STEREOSELECTIVE COVALENT LIGANDS FOR ONCOGENIC AND IMMUNOLOGICAL PROTEINS” (The Scripps Research Institute, priority 2021, published 2025):

What was measured:
Assay in all cases: IA-DTB cysteine engagement
Format in all cases: binding
Details in all cases: 22Rv1 cells, 20 μM probe, 1 h, relative to DMSO
SLC12A8_C660 = biological target: T1, SLC12A8_C660 (Homo sapiens, UniProt A0AV02)
T1 construct: endogenous in cells; host or cells: 22Rv1
T1 sequence (A0AV02 1-714): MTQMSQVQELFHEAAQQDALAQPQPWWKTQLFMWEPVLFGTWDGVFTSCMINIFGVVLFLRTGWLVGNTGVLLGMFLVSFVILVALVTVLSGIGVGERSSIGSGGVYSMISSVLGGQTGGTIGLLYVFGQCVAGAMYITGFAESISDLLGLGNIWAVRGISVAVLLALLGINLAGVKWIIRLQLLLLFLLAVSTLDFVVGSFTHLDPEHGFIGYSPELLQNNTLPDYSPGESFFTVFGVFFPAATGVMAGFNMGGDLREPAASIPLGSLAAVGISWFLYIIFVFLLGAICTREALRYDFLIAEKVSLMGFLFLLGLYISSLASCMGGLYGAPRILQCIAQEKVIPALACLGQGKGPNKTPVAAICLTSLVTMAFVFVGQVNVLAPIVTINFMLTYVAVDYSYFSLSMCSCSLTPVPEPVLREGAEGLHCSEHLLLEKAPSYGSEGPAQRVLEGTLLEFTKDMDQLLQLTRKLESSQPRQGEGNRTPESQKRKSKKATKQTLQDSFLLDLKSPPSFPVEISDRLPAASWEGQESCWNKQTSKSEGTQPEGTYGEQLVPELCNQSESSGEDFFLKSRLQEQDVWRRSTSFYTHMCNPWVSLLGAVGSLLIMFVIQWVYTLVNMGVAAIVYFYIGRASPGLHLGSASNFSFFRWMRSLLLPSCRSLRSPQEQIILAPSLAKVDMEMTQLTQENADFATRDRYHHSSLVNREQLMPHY
In short: (§1)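 Read-out is TMT-based cysteine engagement, expressed as each reporter ion intensity divided by the average of the DMSO channels. Before that, probe-treated cell lysates were capped with IA-DTB, digested, enriched on streptavidin and TMT-tagged. PSMs with DMSO summed intensity <10,000 or DMSO CV >0.5 were excluded.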

CDKN2AIP_C516 = biological target: T2, CDKN2AIP_C516 (Homo sapiens, UniProt Q9NXV6)
T2 construct: endogenous in cells; host or cells: 22Rv1
T2 sequence (Q9NXV6 1-580): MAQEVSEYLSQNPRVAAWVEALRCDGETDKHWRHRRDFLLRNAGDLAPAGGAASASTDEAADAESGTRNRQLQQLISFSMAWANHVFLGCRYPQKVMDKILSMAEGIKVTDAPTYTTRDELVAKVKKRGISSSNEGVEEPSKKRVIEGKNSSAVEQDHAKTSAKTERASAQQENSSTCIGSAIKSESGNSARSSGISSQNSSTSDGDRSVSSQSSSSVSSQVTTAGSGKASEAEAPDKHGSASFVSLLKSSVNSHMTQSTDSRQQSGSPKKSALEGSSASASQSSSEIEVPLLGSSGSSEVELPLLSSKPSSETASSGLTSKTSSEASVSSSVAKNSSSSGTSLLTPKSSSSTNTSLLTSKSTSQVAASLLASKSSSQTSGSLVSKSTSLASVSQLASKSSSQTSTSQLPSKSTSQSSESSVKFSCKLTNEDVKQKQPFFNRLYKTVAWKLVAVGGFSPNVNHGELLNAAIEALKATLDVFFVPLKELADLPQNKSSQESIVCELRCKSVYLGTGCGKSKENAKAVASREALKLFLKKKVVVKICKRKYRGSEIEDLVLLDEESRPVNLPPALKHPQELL
In short: as §1

MAGI1_C526 = biological target: T3, MAGI1_C526 (Homo sapiens, UniProt Q96QZ7)
T3 construct: endogenous in cells; host or cells: 22Rv1
In short: as §1

T3 sequence (Q96QZ7 whole entry): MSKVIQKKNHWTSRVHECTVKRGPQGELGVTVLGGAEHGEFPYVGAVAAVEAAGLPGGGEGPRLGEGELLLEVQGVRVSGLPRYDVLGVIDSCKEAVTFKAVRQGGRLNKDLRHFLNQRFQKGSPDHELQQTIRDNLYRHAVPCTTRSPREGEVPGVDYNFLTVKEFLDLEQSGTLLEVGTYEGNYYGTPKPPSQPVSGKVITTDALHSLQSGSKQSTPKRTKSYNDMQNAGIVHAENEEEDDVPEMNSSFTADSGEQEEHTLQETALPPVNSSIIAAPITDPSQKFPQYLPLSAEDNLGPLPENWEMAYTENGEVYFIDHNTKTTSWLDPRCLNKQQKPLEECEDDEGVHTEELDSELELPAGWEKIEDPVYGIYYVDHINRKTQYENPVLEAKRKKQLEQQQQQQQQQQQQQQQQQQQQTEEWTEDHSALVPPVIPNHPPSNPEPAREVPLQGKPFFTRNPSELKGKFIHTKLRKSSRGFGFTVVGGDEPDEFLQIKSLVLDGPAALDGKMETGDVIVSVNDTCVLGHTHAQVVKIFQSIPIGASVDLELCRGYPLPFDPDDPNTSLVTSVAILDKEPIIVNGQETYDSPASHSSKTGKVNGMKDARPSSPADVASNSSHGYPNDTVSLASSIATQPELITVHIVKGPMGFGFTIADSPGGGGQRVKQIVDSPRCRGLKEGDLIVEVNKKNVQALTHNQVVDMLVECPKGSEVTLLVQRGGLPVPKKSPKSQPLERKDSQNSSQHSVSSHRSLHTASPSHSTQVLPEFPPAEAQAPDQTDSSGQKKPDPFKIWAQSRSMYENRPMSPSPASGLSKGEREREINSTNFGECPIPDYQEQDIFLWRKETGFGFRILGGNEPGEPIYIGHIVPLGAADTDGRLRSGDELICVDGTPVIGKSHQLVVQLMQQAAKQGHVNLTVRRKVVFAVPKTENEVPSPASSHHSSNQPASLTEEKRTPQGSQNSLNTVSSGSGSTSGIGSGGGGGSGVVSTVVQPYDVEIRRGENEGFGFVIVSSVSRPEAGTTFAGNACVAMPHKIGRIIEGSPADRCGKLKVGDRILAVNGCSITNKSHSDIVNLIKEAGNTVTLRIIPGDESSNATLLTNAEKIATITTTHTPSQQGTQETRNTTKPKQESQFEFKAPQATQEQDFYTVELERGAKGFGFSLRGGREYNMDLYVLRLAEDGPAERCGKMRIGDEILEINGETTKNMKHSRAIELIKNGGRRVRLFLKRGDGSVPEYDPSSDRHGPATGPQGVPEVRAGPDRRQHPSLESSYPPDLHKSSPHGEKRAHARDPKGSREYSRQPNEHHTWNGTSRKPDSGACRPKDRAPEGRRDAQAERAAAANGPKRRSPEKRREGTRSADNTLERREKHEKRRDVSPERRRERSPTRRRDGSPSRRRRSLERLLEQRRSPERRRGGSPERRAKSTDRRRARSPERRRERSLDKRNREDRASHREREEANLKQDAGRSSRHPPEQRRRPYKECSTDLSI

| SMILES | % engagement SLC12A8_C660 (SLC12A8_C660) | % engagement CDKN2AIP_C516 (CDKN2AIP_C516) | % engagement MAGI1_C526 (MAGI1_C526) |
| --- | --- | --- | --- |
| C=CC(=O)N1C[C@@H](c2ccc(Br)cc2)[C@H]1C(=O)Nc1cccc2cccnc12 [MY-1A, (2S,3R)-1-acryloyl-3-(4-bromophenyl)-N-(quinolin-8-yl)azetidine-2-carboxamide] | 77.5% | 66.5% | 65% |
| C=CC(=O)N1C[C@H](c2ccc(Br)cc2)[C@@H]1C(=O)Nc1cccc2cccnc12 [MY-1B, (2R,3S)-1-acryloyl-3-(4-bromophenyl)-N-(quinolin-8-yl)azetidine-2-carboxamide] | 61.5% | 24% | 32% |
| C=CC(=O)N1C[C@H](c2ccc(Br)cc2)[C@H]1C(=O)Nc1cccc2cccnc12 [MY-3A, (2S,3S)-1-acryloyl-3-(4-bromophenyl)-N-(quinolin-8-yl)azetidine-2-carboxamide] | 41% | 12.75% | 2.5% |
| C=CC(=O)N1C[C@H](c2ccc(Br)cc2)[C@H]1C(=O)Nc1cccc2cccnc12 [MY-3B, (2S,3S)-1-acryloyl-3-(4-bromophenyl)-N-(quinolin-8-yl)azetidine-2-carboxamide] | 68.5% | 18.75% | 100% |
